Like-named read-outs stand apart in the source and are kept apart here.
Tests used:
Format in all cases: cell-based
[1] = test system: SARS-CoV-2 Alpha strain (QK002)
[2] = test system: SARS-CoV-2 Gamma strain (TY7-501)
[3] = test system: SARS-CoV-2 Beta strain (TY8-612)
[4] = Alpha strain (QK002), CPE assay in Vero/TMPRSS2
[5] = Gamma strain (TY7-501), CPE assay in Vero/TMPRSS2
[6] = Beta strain (TY8-612), CPE assay in Vero/TMPRSS2

| SMILES | EC50 [1, 4] [µM] | EC50 [2, 5] [µM] | EC50 [3, 6] [µM] | EC50 [1] [µM] | EC50 [2] [µM] | EC50 [3] [µM] |
| --- | --- | --- | --- | --- | --- | --- |
| CCN(Cc1cc(Nc2ncnc3ccccc23)cc(Cl)c1O)C(C)C [Compound 11] | 3.8 | 5.4 | 9.3 | – | – | – |
| CC(C)N(Cc1cc(Nc2ncnc3ccccc23)cc(Cl)c1O)C(C)C [Compound 15] | 2.7 | 3.5 | 6.8 | – | – | – |
| CCN(Cc1cc(Nc2ncnc3ccccc23)cc(Cl)c1O)C1CCCCC1 [Compound 19] | – | – | – | 5.8 | 4.2 | 8.6 |
